Laboratory results taken from ChEMBL document CHEMBL1201862, “PubChem BioAssay data set” (2004).
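How tested: cells in 96-well plates exposed to compound for 48 hours at five concentrations. GI50 is the concentration that inhibits growth by half.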 Calls of active or inactive are those of the source. No stated cut-off is given here; in the data, active = GI50 up to about 1.1 µM and inactive = higher.

Assays:
Test in all cases: NCI tumour cell line growth inhibition, 48 h
[1] = tested on: RPMI-8226
[2] = tested on: UO-31
[3] = tested on: K562
[4] = tested on: EKVX
[5] = tested on: OVCAR-8
[6] = tested on: SR
[7] = tested on: ACHN
[8] = tested on: OVCAR-3
[9] = tested on: SF-295
[10] = tested on: SNB-19
[11] = tested on: HOP-92
[12] = tested on: CAKI-1
[13] = tested on: KM-20L2
[14] = tested on: LOX IMVI
[15] = tested on: NCI-H460
[16] = tested on: SK-OV-3
[17] = tested on: NCI-H226
[18] = tested on: SW-620
[19] = tested on: KM12
[20] = tested on: RXF 393

Measured: GI50

N#C/C(=C/c1ccc([N+](=O)[O-])o1)c1ccccc1
inactive: [1] > 100 µM | [2] > 100 µM | [3] > 100 µM | [4] > 100 µM | [5] > 100 µM | [6] > 100 µM | [7] > 100 µM | [8] > 100 µM | [9] > 100 µM | [10] > 100 µM | [11] > 100 µM | [12] > 100 µM | [13] > 100 µM | [14] > 100 µM | [15] > 100 µM | [16] > 100 µM | [17] > 100 µM | [18] > 100 µM | [19] > 100 µM | [20] > 100 µM
